Series [1] is described as follows: Anti-inflammatory effect (carrageenin edema of hind paw). The class given is in vivo, Wistar-strain male rats. On the set-up: anti-inflammatory effect (inhibition percentage of carrageenin edema): scale not given here. Particulars: orally, rats, 3 hours. As to the method: 2. Anti-inflammatory effect
A group of five Wistar-strain male rats (100-150 g) were orally administered with each test compound suspended in 0.5 % tragacanth-saline solution. After 30 minutes 0.5 %-1.0 % carrageenin suspended in the water for injection was injected subcutaneously to a hind paw. After 3 hours the carrageenin edema was measured by volume and the inhibition percentage was determined with respect to the results for the control animals. The inhibition percentages were shown with the notations as follows: […]
For orientation: In the carrageenan paw model, swelling and tenderness develop within hours.

Series [2] is described as follows: Analgetic effect (acetic acid writhing syndrome). It is filed as in vivo, dd-strain male mice. The note with it: orally, mice; for ED50: Mus musculus, po, acetic acid writhing. As to the method:
Each test compound suspended in 0.5 % tragacanth-saline solution was orally administered to dd-strain male mice (18-20 g). After one hour 0.6% acetic acid solution was intraperitoneally injected in a volume of 0.1 ml/10 g.

Series [3] deals with dd-strain male mice. The note with it: 72 hours. As to the method: The lethal dose was estimated from the death of animals 72 hours after administration.
Series [4] is described as follows: Analgetic effect (acetic acid writhing syndrome). The class given is in vivo, dd-strain male mice. The note with it: Mus musculus, ip, mice. For orientation: In writhing tests, fewer writhes than in controls are read as antinociception.
[5] abbreviates: Rattus norvegicus, po, read-out: anti-inflammatory effect (inhibition percentage of carrageenin edema).
Where [6] appears, read: Rattus norvegicus, po, dose 50 mg/kg, read-out: anti-inflammatory effect (inhibition percentage of carrageenin edema).

Data on 9 molecules can be found in patent US3984415A, “1-Nitrophenylpyrido [2,3-d] pyrimidine-2,4(1H,3H)-diones” (Hisamitsu Pharmaceutical Co., Inc., priority 1973, dated 1976).

In general, ED50 refers to the midpoint of the dose-response relation.

Read-outs that look alike come from different tables or passages of the source. A value given as a limit tells only on which side of the number the result lay.

Take `CCOC(=O)Cn1c(=O)c2cccnc2n(-c2cccc([N+](=O)[O-])c2)c1=O` [Compound 27]: in series [1] (setting [5]), the inhibition in vivo at 10 mg/kg lay in the range of 31 to 45%. The inhibition in vivo at 20 mg/kg in series [1] (Rattus norvegicus, po, dose 20 mg/kg, read-out: anti-inflammatory effect (inhibition percentage of carrageenin edema)) lay within 31 to 45%. In series [1] (setting [6]), the inhibition in vivo at 50 mg/kg lay in the range of 46 to 60%. Moreover, the inhibition in vivo at 100 mg/kg in series [1] (setting [5]) was 46 to 60%. Moreover, the 50% effective dose (ED50) in series [2] is 45 mg/kg. For the same molecule, the “acute toxicity (lethal dose)” value in series [3] (i.p.) is reported as 1000 mg/kg; in series [3] (p.o.) it was greater than 2000 mg/kg.

Turning to `O=c1c2cccnc2n(-c2cccc([N+](=O)[O-])c2)c(=O)n1CCc1ccccc1` [Compound 31], the inhibition in vivo at 100 mg/kg in series [1] (setting [5]) was less than 15%. Moreover, in series [2], the ED50 is greater than 100 mg/kg. For the same molecule, the figures for the “acute toxicity (lethal dose)” value in series [3] (i.p.) and in series [3] (p.o.) were greater than 1000 mg/kg and greater than 2000 mg/kg, respectively.

Turning to `Cn1c(=O)c2cccnc2n(-c2cccc([N+](=O)[O-])c2)c1=S` [Compound 33, 1-(m-nitrophenyl)-3-methyl-2-thio-4-oxo-1,2,3,4-tetrahydropyrido[2,3-d]pyrimidine], the inhibition in vivo at 10 mg/kg in series [1] (setting [5]) fell in the range of 46 to 60%. In series [1] (dose 50 mg/kg), the “anti-inflammatory effect (inhibition percentage of carrageenin edema)” value is “+ ++”. Also, the “analgetic effect ED50, 95% C.L.” value in series [2] (only the 95% confidential limits are printed) lay within 0.23 to 1.55 mg/kg. Further, the “acute toxicity (lethal dose)” value in series [3] (i.p.) was greater than 1000 mg/kg; in series [3] (p.o.) it was greater than 2000 mg/kg.

Take `CCn1c(=O)c2cccnc2n(-c2cccc([N+](=O)[O-])c2)c1=S` [Compound 34]: the inhibition in vivo at 10 mg/kg in series [1] (setting [5]) fell in the range of 46 to 60%. Moreover, the inhibition in vivo at 50 mg/kg in series [1] (setting [6]) was 46 to 60%. The molecule also came in with an ED50 in series [2] of roughly 0.2 mg/kg. The “acute toxicity (lethal dose)” value is reported as greater than 1000 mg/kg in series [3] (i.p.) and greater than 2000 mg/kg in series [3] (p.o.).

In the case of `CCCn1c(=O)c2cccnc2n(-c2cccc([N+](=O)[O-])c2)c1=S` [Compound 35], in series [1] (setting [5]), the inhibition in vivo at 10 mg/kg lay within 16 to 30%. Besides, in series [1] (setting [6]), the inhibition in vivo at 50 mg/kg was in the range of 16 to 30%. The molecule also came in with an ED50 in series [2] of roughly 1000 mg/kg. The figures for the “acute toxicity (lethal dose)” value in series [3] (i.p.) and in series [3] (p.o.) were greater than 1000 mg/kg and greater than 2000 mg/kg, respectively.

Turning to `O=c1c2cccnc2n(-c2cccc([N+](=O)[O-])c2)c(=S)n1CC(F)(F)F` [Compound 39], the inhibition in vivo at 10 mg/kg in series [1] (setting [5]) was greater than 61%. Moreover, in series [1] (setting [6]), the inhibition in vivo at 50 mg/kg was in the range of 46 to 60%. Further, the ED50 in series [2] amounted to 0.23 mg/kg. Further, the “acute toxicity (lethal dose)” value in series [3] (i.p.) is reported as greater than 1000 mg/kg; in series [3] (p.o.), greater than 2000 mg/kg.

For the molecule `O=C(Cn1c(=O)c2cccnc2n(-c2cccc([N+](=O)[O-])c2)c1=O)c1ccc(Cl)cc1` [O --CH2 CO], the inhibition in vivo at 100 mg/kg in series [1] (setting [5]) was less than 15%. Further, in series [2], the ED50 was greater than 100 mg/kg. Further, the “acute toxicity (lethal dose)” value in series [3] (i.p.) is given as greater than 1000 mg/kg; in series [3] (p.o.) it was greater than 2000 mg/kg.

In the case of `Cc1c(N(C)C)c(=O)n(-c2ccccc2)n1C` [aminopyrine, reference compound], the inhibition in vivo at 10 mg/kg in series [1] (setting [5]) is less than 15%. The inhibition in vivo at 50 mg/kg in series [1] (setting [6]) was less than 15%. In addition, the “acute toxicity (lethal dose)” value in series [3] (i.p.) lay within 100 to 300 mg/kg. Further, in series [4], the ED50 worked out at 56 mg/kg.

`O=C(O)c1ccccc1Nc1cccc(C(F)(F)F)c1` [flufenamic acid, reference compound]: the inhibition in vivo at 10 mg/kg in series [1] (setting [5]) was less than 15%. The inhibition in vivo at 50 mg/kg in series [1] (setting [6]) was 16 to 30%. Besides, it took a dose of 180 mg/kg to reach the 50% effect level in series [2] (ED50). Besides, the “acute toxicity (lethal dose)” value in series [3] (i.p.) lay in the range of 300 to 1000 mg/kg.
